One series deals with WRN helicase (Homo sapiens, UniProt Q14191). The series is described as follows: WRN helicase hydrolysis/unwinding of double-stranded DNA (fluorescence). It counts as biochemical. As to the method:
The activity of the molecules of the present disclosure on the hydrolysis of double-stranded PP-6TR DNA by WRN helicase was tested.
The working solution and buffer were prepared, and the test compound was dissolved in DMSO followed by a4-fold dilution (with a final concentration of 10 μM as the starting concentration). Then, 0.2 μL of the test compound solution was added to a384-well plate, followed by 10 μL of (2×) WRN enzyme solution. The mixture was incubated in the dark for 30 minutes, after which 10 μL of substrate detection solution containing double-stranded DNA was added to initiate the reaction (DNA length: 19 bp, labeled with TAMRA at the 3′ end and BHQ2 at the 5′ end). The mixture was incubated at room temperature for 60 minutes. The inhibitory activity (IC50) against the WRN enzyme was calculated based on the fluorescence change (Ex530/Em590) between the blank group (DMSO) and the compound group.

Series [1] concerns MSI-H colorectal cancer SW48 cell line. The series is described as follows: 2D anti-proliferative activity, MSI-H SW48 cells (CTG, 5 days). Conditions: 5 days. It counts as cell-based. As to the method: The molecules of the present disclosure were tested for their anti-proliferative activity against MSI-H tumor cells.
The proliferation of tumor cells with microsatellite instability MSI-H is sensitive to WRN inhibitors, while the proliferation of microsatellite stable (MSS) tumor cells is insensitive to WRN inhibitors. By testing the activities of the two, it is shown that the molecules of the present disclosure have an inhibitory and synthetic lethal effect on WRN at the cellular level.
(§1) The MSI-unstable SW48 colorectal cancer cells were cultured in RPMI 1640 medium containing 10% FBS and 1% penicillin-streptomycin in a 37° C., 5% CO2 constant temperature incubator. A 40 μL cell suspension was added to each well of a 384-well microplate. Using Echo, 40 nL of compounds at different concentrations was dispensed into each well, followed by incubation in a 37° C., 5% CO2 constant temperature incubator for 5 days. Then, 40 μL of CTG solution (Promega, Cat No. G7573) was added to each well, and the plate was incubated in the dark in a 37° C., 5% CO2 constant temperature incubator for 30 minutes. Luminescence was measured using an Envision multi-function microplate reader (Perkin Elmer, Model: Envision 2104). The luminescent signal was proportional to the amount of ATP in the system, and the amount of ATP directly represented the number of living cells in the system.

Series [2] deals with MSS colorectal cancer HT-29 cell line. The series is described as follows: 2D anti-proliferative activity, MSS HT-29 cells (CTG, 5 days). The series is classed as cell-based. As to the method: The molecules of the present disclosure were tested for their anti-proliferative activity against MSS tumor cells.
as §1, with “MSS HT-29” for “MSI-unstable SW48”, “McCoy's 5A” for “RPMI 1640”

Series [3] in a line: Liver microsome stability test. The series is classed as in vitro ADME. The conditions noted are these: human liver microsomes 0.5 mg/mL, compound 1 μM, NADPH 1 mM, 60 minutes; for microsomal CLint at 1 μM: read-out: Human Clint μL/min/mg Protein. As to the method: The liver microsome stability test of the compounds is as follows:
The compounds of the present disclosure were subjected to a liver microsome stability test. The compounds to be tested were co-incubated with liver microsomes of different species with or without the addition of NADPH. The final concentration of the compounds to be tested in the test system was 1 μM, the final concentration of NADPH was 1 mM, and the final concentration of liver microsomes was 0.5 mg/mL.

Series [4] can be described thus: Pharmacokinetic evaluation in mice. The conditions noted are these: for AUC(0-t): read-out: AUC0-24. The series is classed as in vivo, CD1 female mice. As to the method: CD1 female mice were used as test animals and the drug was administered orally/intravenously (oral dosage: 10 mg/kg, intravenous dosage: 2 mg/kg).
Assay protocol: The oral group consisted of 3 mice per group (vehicle: 10% Hβ-CD-pH7.4), and the intravenous group consisted of 3 mice per group. […] The blood concentrations in plasma after oral and intravenous administration of mice were determined by LC/MS/MS, respectively.

[5] abbreviates: female, CD1, mouse, plasma, IV 2 mg/kg.
Setting [6] is: female, CD1, mouse, plasma, PO 10 mg/kg.

Read-outs that look alike come from different tables or passages of the source. Where only a bound is given, the exact number is not on record here.

Chain of WRN helicase (Q14191 whole entry): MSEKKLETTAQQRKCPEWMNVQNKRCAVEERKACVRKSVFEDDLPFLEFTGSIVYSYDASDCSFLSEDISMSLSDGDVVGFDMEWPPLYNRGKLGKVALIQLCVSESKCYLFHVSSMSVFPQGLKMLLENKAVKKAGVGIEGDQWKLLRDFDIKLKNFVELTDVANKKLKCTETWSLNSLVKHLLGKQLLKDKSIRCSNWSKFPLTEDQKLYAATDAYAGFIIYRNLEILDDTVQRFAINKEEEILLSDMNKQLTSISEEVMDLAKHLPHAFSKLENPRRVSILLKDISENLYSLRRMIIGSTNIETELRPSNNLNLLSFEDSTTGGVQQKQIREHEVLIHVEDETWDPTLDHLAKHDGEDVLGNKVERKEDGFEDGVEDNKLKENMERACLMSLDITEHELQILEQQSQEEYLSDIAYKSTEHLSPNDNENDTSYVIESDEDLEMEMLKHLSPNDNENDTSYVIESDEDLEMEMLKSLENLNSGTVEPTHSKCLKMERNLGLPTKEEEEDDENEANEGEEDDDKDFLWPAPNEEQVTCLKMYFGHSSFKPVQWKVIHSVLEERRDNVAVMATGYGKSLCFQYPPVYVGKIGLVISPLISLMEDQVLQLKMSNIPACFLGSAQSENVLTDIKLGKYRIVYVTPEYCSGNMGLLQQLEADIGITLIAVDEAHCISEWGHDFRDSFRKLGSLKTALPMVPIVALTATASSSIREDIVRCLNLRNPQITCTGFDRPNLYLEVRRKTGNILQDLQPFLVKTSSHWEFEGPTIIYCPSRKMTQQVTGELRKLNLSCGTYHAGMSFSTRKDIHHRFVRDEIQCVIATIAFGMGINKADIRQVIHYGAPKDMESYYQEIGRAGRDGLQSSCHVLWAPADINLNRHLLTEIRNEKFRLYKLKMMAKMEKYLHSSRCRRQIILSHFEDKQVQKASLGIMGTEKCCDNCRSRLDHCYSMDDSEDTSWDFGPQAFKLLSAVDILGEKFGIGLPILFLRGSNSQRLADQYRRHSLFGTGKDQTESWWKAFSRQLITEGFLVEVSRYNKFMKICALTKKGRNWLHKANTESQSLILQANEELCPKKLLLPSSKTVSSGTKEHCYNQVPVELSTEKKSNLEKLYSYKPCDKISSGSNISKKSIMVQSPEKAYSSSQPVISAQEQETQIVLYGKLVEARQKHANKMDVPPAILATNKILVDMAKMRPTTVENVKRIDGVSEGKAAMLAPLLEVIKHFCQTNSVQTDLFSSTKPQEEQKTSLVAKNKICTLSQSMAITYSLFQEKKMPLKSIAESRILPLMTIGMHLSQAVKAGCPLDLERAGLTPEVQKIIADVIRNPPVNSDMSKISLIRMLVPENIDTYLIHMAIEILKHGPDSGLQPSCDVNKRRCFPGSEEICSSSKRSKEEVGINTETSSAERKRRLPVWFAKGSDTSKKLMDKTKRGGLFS

As for `CCc1c(N2CCN(C(=O)c3ncccc3O)CC2)c(=O)n2nc(N3CCOCC3)nc2n1CC(=O)Nc1ccc(C(F)(F)F)c2ccsc12` [Compound H9], the IC50 on WRN helicase is 1.7 nM; in series [1] (Homo sapiens, 120 h), 193 nM; in series [2] (Homo sapiens, 120 h), greater than 10000 nM. The CLint scaled at 1 μM in series [3] turned out to be 13 mL/min/kg. For the same compound, the microsomal CLint at 1 μM in series [3] came out at 10.3 µL/min/mg.
On to `CCc1c(N2CCN(C(=O)c3ncnc(C)c3O)CC2)c(=O)n2nc(C3=CCOCC3)nc2n1CC(=O)Nc1ccc(C(F)(F)F)c2ncsc12` [Compound H14], for which the IC50 against WRN helicase is 3.9 nM; in series [1] (Homo sapiens, 120 h), 2200 nM; in series [2] (Homo sapiens, 120 h), greater than 10000 nM.
For `CCc1c(N2CCN(C(=O)c3ncccc3O)CC2)c(=O)n2nc(C3=CCOCC3)nc2n1CC(=O)Nc1ccc(C(F)(F)F)c2ccsc12` [Compound H2], the IC50 against WRN helicase was found to be 1.4 nM; in series [1] (Homo sapiens, 120 h), 131 nM; in series [2] (Homo sapiens, 120 h), 3500 nM. Also, the CLint scaled at 1 μM in series [3] turned out to be 19.7 mL/min/kg. The microsomal CLint at 1 μM in series [3] was determined as 15.7 µL/min/mg.
For `CCc1c(N2CCN(C(=O)c3ncccc3O)CC2)c(=O)n2nc(C3=CCC(OC)CC3)nc2n1CC(=O)Nc1ccc(C(F)(F)F)c2ccsc12` (centres unmarked) [Compound H8], the IC50 against WRN helicase is 1.3 nM; in series [1] (Homo sapiens, 120 h), 124 nM; in series [2] (Homo sapiens, 120 h), 1480 nM.
For `CCc1c(N2CCN(C(=O)c3nccc(Cl)c3O)CC2)c(=O)n2nc(C3=CCOCC3)nc2n1CC(=O)Nc1ccc(C(F)(F)F)c2ccsc12` [Compound H19], the IC50 on WRN helicase was 0.9 nM; in series [1] (Homo sapiens, 120 h) it was 125 nM; in series [2] (Homo sapiens, 120 h) it was greater than 10000 nM. Besides, the CLint scaled at 1 μM in series [3] is 0.73 mL/min/kg. Further, in series [3], the microsomal CLint at 1 μM amounted to 0.58 µL/min/mg.
For `CCc1c(N2CCN(C(=O)c3ncnc(C)c3O)CC2)c(=O)n2nc(C3=CCOCC3)nc2n1CC(=O)Nc1ccc(C(F)(F)F)c2c1OCC2` [Compound H3], the IC50 against WRN helicase was 1.6 nM; in series [1], 216 nM; in series [2], greater than 10000 nM. Moreover, the “Human Clint μL/min/mg Protein” value in series [3] was 2.2 μL/min/mg Protein. Further, the “Human Clint/(mL/min/kg)” value in series [3] is listed as 2.7 mL/min/kg.
In turn, `CCc1c(N2CCN(C(=O)c3ncnc(C)c3O)CC2)c(=O)n2nc(C3=CCOCC3)nc2n1CC(=O)Nc1ccc(Br)c2ccsc12` [Compound H15] registered an IC50 in series [1] (Homo sapiens, 120 h) of 101 nM. The compound also gave an IC50 in series [2] (Homo sapiens, 120 h) greater than 10000 nM. In series [3], the CLint scaled at 1 μM stood at 2.5 mL/min/kg and the microsomal CLint at 1 μM is 2 µL/min/mg. The compound also displayed a F in series [4] (PO 10 mg/kg vs IV 2 mg/kg) of 35%. For the same compound, in series [4] (setting [5]), the clearance was determined as 50.4 mL/min/kg, the half-life was 18 min and the AUC(0-t) amounted to 655 ng·h/mL. For the same compound, the C0 in series [4] (female, CD1, mouse, plasma, IV 2 mg/kg, read-out: C0) is 1740 ng/mL. Further, in series [4] (setting [6]), the half-life is 114 min and the AUC(0-t) worked out at 1050 ng·h/mL. The Cmax in series [4] (female, CD1, mouse, plasma, PO 10 mg/kg, read-out: Cmax) stood at 693 ng/mL. Further, the Tmax in series [4] (female, CD1, mouse, plasma, PO 10 mg/kg, read-out: Tmax) was 15 min.
Take `CCc1c(N2CCN(C(=O)c3nccc(F)c3O)CC2)c(=O)n2nc(C3=CCOCC3)nc2n1CC(=O)Nc1ccc(C(F)(F)F)c2ccsc12` [Compound H20]: the IC50 on WRN helicase is 1 nM; in series [1] (Homo sapiens, 120 h), 75 nM; in series [2] (Homo sapiens, 120 h), greater than 10000 nM. For the same compound, the intrinsic metabolic clearance (CLint scaled) at 1 μM in series [3] was 25.9 mL/min/kg. In addition, in series [3], the microsomal CLint at 1 μM was found to be 20.6 µL/min/mg.
Consider `CCc1c(N2CCN(C(=O)c3ncccc3O)CC2)c(=O)n2nc(N3CCC[C@H](F)C3)nc2n1CC(=O)Nc1ccc(C(F)(F)F)c2ccsc12` [Compound H11], for which the IC50 worked out at 2.4 nM at WRN helicase; 1140 nM in series [1] (Homo sapiens, 120 h); 7410 nM in series [2] (Homo sapiens, 120 h).
Regarding `CCc1c(N2CCN(C(=O)c3ncnc(C)c3O)CC2)c(=O)n2nc(C3=CCOCC3)nc2n1CC(=O)Nc1ccc(C(F)(F)F)cc1SC` [Compound H4], the IC50 was 71 nM against WRN helicase; 2560 nM in series [1] (Homo sapiens, 120 h); greater than 10000 nM in series [2] (Homo sapiens, 120 h).

Source of the values: US20260216197A1, “WRN HELICASE INHIBITOR” (SUZHOU PUHE BIOPHARMA CO., LTD., priority 2022, published 2026).
